Measurements reported in article PMC8657773, “Development of a PROTAC-Based Targeting Strategy Provides a Mechanistically Unique Mode of Anti-Cytomegalovirus Activity” (International Journal of Molecular Sciences, 2021).
Values joined by “and” are separate entries in the source; they are usually repeats but may differ in a detail not shown here. Equal entries are not always repeated. Where two headings read alike, the source gives them in different places.

Tests used:
SARS-CoV-2 d6-YFP [1] = test system: SARS-CoV-2 d6-YFP; set-up: method as in PMID 34578109; settings: human Caco-2 cells, previously demonstrated; ref [41]; cited from earlier work
CDK7 [2] = molecular target: T1, CDK7 (Homo sapiens, UniProt P50613); assay: Western blot of CDK degradation in HFFs; assay type: cell-based; settings: uninfected HFFs
T1 construct: endogenous in cells; host or cells: primary human foreskin fibroblasts (HFFs), mock- or HCMV AD169-infected
Protocol: (§1) Western blot analyses of infected and mock-infected HFFs were performed as previously described. Antibodies specific for CDK9 (sc-484, Santa Cruz Biotechnology, Dallas, TX, USA), mAb-CDK1 (sc-54, Santa Cruz Biotechnology), pAb CDK2 (Sc-163, Santa Cruz Biotechnology), pAb-CDK7 (sc-723, Santa Cruz Biotechnology), and mAb β-actin (A5441, Sigma Aldrich, St. Louis, MO, USA) were used with an appropriate secondary antibody to detect the respective proteins.

CDK1 [3] = molecular target: T2, CDK1 (Homo sapiens, UniProt P06493); assay: Western blot of CDK degradation in HFFs; assay type: cell-based; settings: uninfected HFFs, up to 100 nM, up to 24 h
T2 construct: endogenous in cells; host or cells: primary human foreskin fibroblasts (HFFs), mock- or HCMV AD169-infected
Protocol: as §1

CDK2 [4] = molecular target: T3, CDK2 (Homo sapiens, UniProt P24941); assay: Western blot of CDK degradation in HFFs; assay type: cell-based; settings: uninfected HFFs
T3 construct: endogenous in cells; host or cells: primary human foreskin fibroblasts (HFFs), mock- or HCMV AD169-infected
Protocol: as §1

CDK9 [5] = molecular target: T4, CDK9 (Homo sapiens, UniProt P50750); assay: Western blot of CDK degradation in HFFs; assay type: cell-based; settings: uninfected HFFs
T4 construct: endogenous in cells; host or cells: primary human foreskin fibroblasts (HFFs), mock- or HCMV AD169-infected
Protocol: as §1

SARS-CoV-2 d6-YFP [6] = assay: microbe, parasite or virus in culture; assay type: cell-based
[7] = Cell viability of Vero cells; assay type: cell-based; settings: African green monkey
Protocol: (§2) Drug induced cytotoxicity in HFF and other cell types was measured as a reduction of cell viability determined by Neutral Red uptake assay (NRA), as described previously. Briefly, compound treated cells were incubated with a final concentration of 40 μg/mL Neutral Red (Sigma Aldrich, St. Louis, MO, USA) for 1 to 4 h, depending on the cell type. The amount of incorporated Neutral Red was released from the cells by incubation with destaining solution (50% ethanol, 49% H2O, 1% acetic acid), and subsequently quantitated in a microplate reader by fluorescence measurement using 560/630 nm for excitation/emission, respectively. For determination of lactate dehydrogenase release into the cell culture supernatant, the CytoTox 96® Non-Radioactive Cytotoxicity Assay (Promega, Madison, WI, USA) was used according to the manufacturer’s protocol. Values were normalized to maximal release of LDH by measuring lysates of solvent-treated control cells. Cell viability was defined as the absence of cytotoxicity.

ZIKV PRVABC59 = assay: ZIKV qPCR replication assay in Vero cells; assay type: cell-based, Zika virus; settings: for EC50: ZIKV PRVABC59, Vero
TEV-1 trophoblast cells = assay: Transwell migration assay, HCMV AD169-infected TEV-1 trophoblasts; assay type: cell-based, human; settings: HCMV AD169-infected TEV-1 (MOI 2), 0.5 µM, 21 h migration
HAdV-2 = HAdV-2 plaque formation assay in HFFs; assay type: cell-based, human adenovirus type 2
MCMV Smith-GFP = assay: microbe, parasite or virus in culture; assay type: cell-based, murine CMV; settings: for EC50: Human betaherpesvirus 5, in Mus musculus, 120 h, MCMV Smith-GFP, 5 d p.i.
VZV Oka-GFP = assay type: cell-based, varicella zoster virus; settings: HFF, 1× TCID25^7d, 6 d p.i.
HCMV Merlin [8] = assay: HCMV-specific qPCR replication assay in MRC-5 cells; assay type: cell-based, Human cytomegalovirus
[9] = Neutral Red uptake assay, uninfected MRC-5 cells; assay type: cell-based; settings: human
Protocol: as §2

in vitro = assay type: cell-based
Protocol: as §2

MEFs = assay: in vitro; assay type: cell-based; settings: mouse, 5 d
Protocol: as §2

CDK7 [10] = molecular target: T1, CDK7; assay: Western blot of CDK levels in HCMV-infected HFFs; assay type: cell-based; settings: HCMV AD169-infected HFFs (MOI 2), THAL-SNS032 treatment, 1 and 3 d p.i.
Protocol: as §1

CDK1 [11] = molecular target: T2, CDK1; assay: Western blot of CDK levels in HCMV-infected HFFs; assay type: cell-based; settings: HCMV AD169-infected HFFs (MOI 2), THAL-SNS032 treatment, 1 and 3 d p.i.
Protocol: as §1

CDK2 [12] = molecular target: T3, CDK2; assay: Western blot of CDK levels in HCMV-infected HFFs; assay type: cell-based; settings: HCMV AD169-infected HFFs (MOI 2), THAL-SNS032 treatment, 1 and 3 d p.i.
Protocol: as §1

CDK9 [13] = molecular target: T4, CDK9; assay: Western blot of CDK levels in HCMV-infected HFFs; assay type: cell-based; settings: HCMV AD169-infected HFFs (MOI 2)
Protocol: as §1

HCMV Merlin [14] = assay: HCMV-specific qPCR replication assay in TEV-1 trophoblast cells; assay type: cell-based, Human cytomegalovirus
HCMV AD169-GFP [15] = assay: microbe, parasite or virus in culture; assay type: cell-based, Human cytomegalovirus
HCMV AD169-GFP [16] = test system: HCMV AD169-GFP; set-up: method as in PMID 30452929, PMID 25624324; settings: anti-HCMV, preceding determination; ref [22],[26]; cited from earlier work
[17] = washout after 24 h treatment, initial levels reconstituted after 24 h

T4 sequence (P50750 whole entry): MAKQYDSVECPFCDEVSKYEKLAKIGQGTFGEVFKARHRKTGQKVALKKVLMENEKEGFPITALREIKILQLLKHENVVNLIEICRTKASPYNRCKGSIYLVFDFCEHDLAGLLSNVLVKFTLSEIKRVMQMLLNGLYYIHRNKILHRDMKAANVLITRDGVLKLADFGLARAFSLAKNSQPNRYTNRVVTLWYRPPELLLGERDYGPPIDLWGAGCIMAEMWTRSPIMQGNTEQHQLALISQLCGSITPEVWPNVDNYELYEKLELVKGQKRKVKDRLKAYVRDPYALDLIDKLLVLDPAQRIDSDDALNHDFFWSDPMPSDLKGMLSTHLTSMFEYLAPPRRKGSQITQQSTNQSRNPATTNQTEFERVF
T1 sequence (P50613 whole entry): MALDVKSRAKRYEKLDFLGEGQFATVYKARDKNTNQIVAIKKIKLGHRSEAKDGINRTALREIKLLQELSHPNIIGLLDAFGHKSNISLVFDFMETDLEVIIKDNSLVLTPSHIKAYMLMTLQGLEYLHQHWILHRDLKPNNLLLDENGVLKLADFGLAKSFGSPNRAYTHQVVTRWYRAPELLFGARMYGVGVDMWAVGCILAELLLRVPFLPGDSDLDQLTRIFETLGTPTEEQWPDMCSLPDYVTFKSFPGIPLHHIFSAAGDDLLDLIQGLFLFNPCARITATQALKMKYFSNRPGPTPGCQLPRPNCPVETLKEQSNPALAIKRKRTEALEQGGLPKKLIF
T2 sequence (P06493 whole entry): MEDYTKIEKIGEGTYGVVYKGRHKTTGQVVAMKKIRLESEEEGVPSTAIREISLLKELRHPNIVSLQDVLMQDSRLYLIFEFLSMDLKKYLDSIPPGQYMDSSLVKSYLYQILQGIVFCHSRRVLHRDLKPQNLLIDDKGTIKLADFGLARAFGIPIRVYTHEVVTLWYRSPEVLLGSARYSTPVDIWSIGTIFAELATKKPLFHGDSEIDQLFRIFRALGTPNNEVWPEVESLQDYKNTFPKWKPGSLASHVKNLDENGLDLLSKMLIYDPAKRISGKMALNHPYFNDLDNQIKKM

O=C1Cc2c([nH]c3ccc([N+](=O)[O-])cc23)-c2ccccc2N1 [R25/alsterpaullone, alsterpaullone]
impairment of SARS-CoV-2 replication (SARS-CoV-2 d6-YFP [1]): effective

CC(C)(C)c1cnc(CSc2cnc(NC(=O)C3CCN(CC(=O)NCCOCCOCCOCCNc4cccc5c4C(=O)N(C4CCC(=O)NC4=O)C5=O)CC3)s2)o1 (centres unmarked) [THAL-SNS032]
CDK7 protein level (larger variety) (CDK7 [2]; 100 nM, 6 to 24 h): decline in protein levels
time reduced CDK7 level was maintained after washout (CDK7 [2]; [17]): 6 h
CDK1 protein level (CDK1 [3]): apparently not affected
CDK2 protein level (CDK2 [4]; 100 nM, 6 to 24 h): decline in protein levels
time reduced CDK2 level was maintained after washout (CDK2 [4]; [17]): 6 h
CDK9 protein level (CDK9 [5]; 10 nM, beginning with 6 h): markedly reduced
CDK9 protein level (CDK9 [5]; 100 nM, after 40 min): decreased protein levels
time reduced CDK9 level was maintained after washout (CDK9 [5]; [17]): 6 h
EC50 (SARS-CoV-2 d6-YFP [6]): 150 ± 20 nM
EC50 Ratio SNS032/ THAL-SNS032 (SARS-CoV-2 d6-YFP [6]): 1.6 and 1.7
SI (SARS-CoV-2 d6-YFP [6]): 592
EC50 (SARS-CoV-2 d6-YFP [6]; Severe acute respiratory syndrome coronavirus 2, Caco-2): 146 ± 22 nM
EC50 (SARS-CoV-2 d6-YFP [6]; Severe acute respiratory syndrome coronavirus 2, Caco-2, 30 h): 110 ± 20 nM
CC50 at 4 d [7]: 43900 nM
effect on ZIKV replication (ZIKV PRVABC59; Vero cells, concentrations up to 10 µM): did not affect virus replication
EC50 (ZIKV PRVABC59; MOI 0.02, 1 d p.i.): inactive
EC50 (ZIKV PRVABC59; MOI 0.02, 2 d p.i.): inactive
EC50 (ZIKV PRVABC59; MOI 0.02, 3 d p.i.): inactive
EC50 (ZIKV PRVABC59; MOI 0.02, 4 d p.i.): inactive
trophoblast migration (TEV-1 trophoblast cells): almost completely abolished trophoblast migration
EC50 (HAdV-2; HAdV-2, HFF, 10 d p.i.): inactive
impact on HAdV-2 plaque formation (HAdV-2; HFFs, at concentrations (0.03 µM) that produced anti-HCMV activity): none of the drugs produced a measurable impact
EC50 Ratio SNS032/ THAL-SNS032 (MCMV Smith-GFP): 1.4
SI (MCMV Smith-GFP): 4.7
EC50 (MCMV Smith-GFP; MEF, 1× TCID25^5d, Table 1 summary): 210 ± 90 nM
EC50 (MCMV Smith-GFP; MEFs, Figure 6 experiment): 220 ± 80 nM
EC50 (VZV Oka-GFP): inactive
EC50 (HCMV Merlin [8]; Human betaherpesvirus 5, MRC5, 96 h, HCMV Merlin, MRC-5, MOI 0.02, 4 d p.i., read-out: EC50): 370 nM
EC50 (HCMV Merlin [8]; Human betaherpesvirus 5, MRC5, 96 h, HCMV Merlin, MRC-5, MOI 0.2, 4 d p.i., read-out: EC50): 1770 nM
EC50 (HCMV Merlin [8]; Human betaherpesvirus 5, MRC5, 168 h, HCMV Merlin, MRC-5, MOI 0.002, 7 d p.i., read-out: EC50): 570 nM
EC50 (HCMV Merlin [8]; Human betaherpesvirus 5, MRC5, 168 h, HCMV Merlin, MRC-5, MOI 0.02, 7 d p.i., read-out: EC50): 400 nM
EC50 (HCMV Merlin [8]; Human betaherpesvirus 5, MRC5, 168 h, HCMV Merlin, MRC-5, MOI 0.2, 7 d p.i., read-out: EC50): 3070 nM
EC50 (HCMV Merlin [8]; Human betaherpesvirus 5, MRC5, 240 h, HCMV Merlin, MRC-5, MOI 0.002, 10 d p.i., read-out: EC50): 940 nM
EC50 (HCMV Merlin [8]; Human betaherpesvirus 5, MRC5, MRC-5, lower MOIs of 0.02 and 0.002, 4 to 10 days, read-out: EC50 values (range)): 340 to 940 nM
CC50 [9]: 4650 nM
CC50 (in vitro; human): 4030 nM
CC50 at 48 h (in vitro; human): 64900 ± 16200 nM
CC50 (in vitro; human, CC50): 125 ± 14 nM
CC50 (in vitro; mouse, CC50): 1000 ± 220 nM
CC50 at 5 d (in vitro; mouse, CC50): ~1000 nM
CC50 (MEFs): 960 ± 120 nM
CDK7 protein level (CDK7 [10]): markedly reduced at 1 d p.i. and completely lost at 3 d p.i.
CDK1 protein level (CDK1 [11]): markedly reduced at 1 d p.i. and completely lost at 3 d p.i.
CDK2 protein level (CDK2 [12]): markedly reduced at 1 d p.i. and completely lost at 3 d p.i.
CDK9 protein level (CDK9 [13]; 1 nM, 1 and 3 d p.i.): partial reduction
CDK9 protein level (CDK9 [13]; 10 nM, 3 h p.i.): sufficient to deplete CDK9 levels
SI (HCMV Merlin [14]): 53.7 and 54
EC50 (HCMV Merlin [14]; Human betaherpesvirus 5, 168 h, HCMV Merlin, TEV-1, 7 d p.i.): 75 nM
EC50 Ratio SNS032/ THAL-SNS032 (HCMV AD169-GFP [15]): 3.7
SI (HCMV AD169-GFP [15]): 5.7
EC50 (HCMV AD169-GFP [15]; Human betaherpesvirus 5, AD169, 168 h): 25 ± 1 nM
EC50 (HCMV AD169-GFP [15]; Human betaherpesvirus 5, AD169, HFF-1, 168 h): 30 ± 10 nM
EC50 (HCMV AD169-GFP [15]; Human betaherpesvirus 5, AD169, read-out: EC50 values (range) for HCMV): 30 to 3070 nM

CC(C)c1cnn2c(NCc3ccccc3-n3cccn3)nc(OC3CCCNC3)nc12 (centres unmarked) [LDC4297]
EC50 (HCMV AD169-GFP [16]): 30 nM
impairment of SARS-CoV-2 replication (SARS-CoV-2 d6-YFP [1]): inactive
